Measured values taken from US6166290A, “Glutathione-S-conjugate transport in plants” (The Trustees of the University of Pennsylvania, priority 1997, dated 2000).

Molecular target: T1, YCF1 (vacuolar membrane vesicles purified from DTY165 cells) (Saccharomyces cerevisiae, UniProt P39109)
T1 construct: endogenous in cells; host or cells: S. cerevisiae DTY165 (wild type YCF1), vacuolar membrane vesicles
Experiment: biochemical
Assay type: biochemical
Details: read-out: Ki(DNP-GS) for inhibition of Cd.GS2 uptake
Method in brief: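 Vacuolar vesicles from wild-type (DTY165) or ycf1Δ (DTY167) yeast, washed free of DTT/EGTA into glycerol/Tris-Mes pH 8.0. MgATP-energized, uncoupler-insensitive uptake of 109Cd2+, GSH or purified radiolabeled Cd·GSn complexes measured at 25°C. Medium: 3 mM ATP/MgSO4, ATP-regenerating system, 5 μM gramicidin-D, Tris-Mes pH 8.0; washes contained 100 μM CdSO4.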

T1 sequence (P39109 whole entry): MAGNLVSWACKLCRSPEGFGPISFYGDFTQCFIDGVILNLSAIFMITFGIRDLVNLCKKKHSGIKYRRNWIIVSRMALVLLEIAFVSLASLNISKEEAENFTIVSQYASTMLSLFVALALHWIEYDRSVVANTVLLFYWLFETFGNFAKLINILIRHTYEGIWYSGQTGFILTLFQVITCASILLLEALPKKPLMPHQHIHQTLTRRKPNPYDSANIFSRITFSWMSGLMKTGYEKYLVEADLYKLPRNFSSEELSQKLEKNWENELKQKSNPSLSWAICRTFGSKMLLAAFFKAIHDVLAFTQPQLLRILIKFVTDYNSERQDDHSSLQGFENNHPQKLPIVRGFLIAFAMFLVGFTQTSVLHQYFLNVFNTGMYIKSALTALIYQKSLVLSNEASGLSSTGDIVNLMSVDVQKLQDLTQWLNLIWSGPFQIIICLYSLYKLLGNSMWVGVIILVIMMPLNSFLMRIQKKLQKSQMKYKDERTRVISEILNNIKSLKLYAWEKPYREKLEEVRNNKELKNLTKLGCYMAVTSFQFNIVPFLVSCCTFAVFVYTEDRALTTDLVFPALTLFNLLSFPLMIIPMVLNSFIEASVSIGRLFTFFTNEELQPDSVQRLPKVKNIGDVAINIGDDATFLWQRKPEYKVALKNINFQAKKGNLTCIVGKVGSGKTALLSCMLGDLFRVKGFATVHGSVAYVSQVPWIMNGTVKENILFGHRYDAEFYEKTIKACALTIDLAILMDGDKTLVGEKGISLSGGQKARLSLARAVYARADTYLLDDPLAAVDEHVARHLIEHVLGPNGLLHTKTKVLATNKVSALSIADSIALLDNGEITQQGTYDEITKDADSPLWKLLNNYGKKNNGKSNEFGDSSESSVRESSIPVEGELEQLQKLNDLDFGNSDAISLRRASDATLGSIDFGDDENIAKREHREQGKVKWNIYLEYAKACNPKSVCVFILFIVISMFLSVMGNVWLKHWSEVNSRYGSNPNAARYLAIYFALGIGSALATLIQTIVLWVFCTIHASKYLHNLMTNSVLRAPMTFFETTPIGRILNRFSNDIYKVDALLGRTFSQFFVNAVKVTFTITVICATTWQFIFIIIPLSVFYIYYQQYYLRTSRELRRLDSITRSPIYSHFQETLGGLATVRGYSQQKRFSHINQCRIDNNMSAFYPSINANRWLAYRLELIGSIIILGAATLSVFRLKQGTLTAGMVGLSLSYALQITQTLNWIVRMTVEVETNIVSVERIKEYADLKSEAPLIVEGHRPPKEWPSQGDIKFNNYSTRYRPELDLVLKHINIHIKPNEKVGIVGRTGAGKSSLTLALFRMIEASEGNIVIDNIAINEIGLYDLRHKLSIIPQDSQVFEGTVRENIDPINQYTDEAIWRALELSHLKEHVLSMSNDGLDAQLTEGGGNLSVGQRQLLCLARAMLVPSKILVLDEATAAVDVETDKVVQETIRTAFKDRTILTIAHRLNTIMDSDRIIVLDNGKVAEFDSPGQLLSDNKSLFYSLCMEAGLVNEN

N[C@@H](CCC(=O)N[C@@H](CSc1ccc([N+](=O)[O-])cc1[N+](=O)[O-])C(=O)NCC(=O)O)C(=O)O [DNP-GS, S-(2,4-dinitrophenyl)glutathione]
Ki: 11.3 ± 2.1 µM
